From US9056999B2, “Ultraviolet-curable aqueous ink, ink cartridge, recording apparatus and recording method” (Fuji Xerox Co., Ltd., priority 2013, dated 2015) come the findings set out here.

This data set in a line: Solubility of thioxanthone compound and tertiary amine compound in water-soluble organic solvent at 25° C.
Where [1] appears, read: in 4-(2-hydroxyethyl)morpholine.
Setting [2] is: in 3-morpholino-1,2-propanediol.

Each structure is given as a SMILES string.

Take `CC(C)c1ccc2sc3ccccc3c(=O)c2c1` [2-isopropylthioxanthone]: where the note is “in 4-ethylmorpholine”, the “solubility (25° C.)” value amounted to 30 mass %.

In the case of `CCOC(=O)c1ccc(N(CC)CC)cc1` [4-diethylamino ethyl benzoate], the “solubility (25° C.)” value under setting [1] is on record as 27 mass %.

As for `CCc1cc(CC)c2sc3ccccc3c(=O)c2c1` [Kayacure DETX-S, 2,4-diethylthioxanthone], the “solubility (25° C.)” value (in 2-(2-butoxyethoxy)ethanol) came to 17 mass %; the “solubility (25° C.)” value (in 3-methylsulfolane) is listed as 4 mass %; the “solubility (25° C.)” value under setting [2] is listed as 9 mass %; the “solubility (25° C.)” value (in 4-(2-aminoethyl)morpholine) turned out to be 14 mass %; the “solubility (25° C.)” value under setting [1] is on record as 15 mass %; the “solubility (25° C.)” value (in 4-acetylmorpholine) stood at 20 mass %.

As to `CCOC(=O)c1ccc(N(C)C)cc1` [Kayacure EPA, 4-dimethylamino ethyl benzoate], the “solubility (25° C.)” value (in 2-(2-butoxyethoxy)ethanol) was 30 mass %; the “solubility (25° C.)” value (in 3-methylsulfolane) amounted to 18 mass %; the “solubility (25° C.)” value under setting [2] was 30 mass %; the “solubility (25° C.)” value (in 4-(2-aminoethyl)morpholine) amounted to 30 mass %; the “solubility (25° C.)” value under setting [1] came out at 30 mass %; the “solubility (25° C.)” value (in 4-acetylmorpholine) is 35 mass %. Besides, the “solubility (25° C.)” value is, setting by setting: (in 4-ethylmorpholine) 40 mass %; (in 4-hydroxypropylmorpholine) 18 mass %.
